Reference: patent US11834458B2, “Anti-cancer nuclear hormone receptor-targeting compounds” (Nuvation Bio Inc., priority 2021, dated 2023)
Where two headings read alike, the source gives them in different places.

Key:
[1] = molecular target: ER Alpha-ligand binding domain (LBD) (Homo sapiens (Human), UniProt P03372); test: ER binding assay (LanthaScreen TR-FRET ER Alpha Competitive Binding); conditions: Fluormone ES2 Green tracer 3 nM, 2 h room temperature
Description: ER binding assay: ERα binding was assessed using the LanthaScreen® TR-FRET ER Alpha Competitive Binding kit from ThermoFisherScientific. In this assay, a terbium-labeled anti-GST antibody was used to indirectly label GST-tagged ER Alpha-ligand binding domain (LBD) by binding to its GST tag. Competitive binding to the ER Alpha-LBD (GST) was detected by a test compound's ability to displace a fluorescent ligand (Fluormone™ ES2 Green tracer) from the ER Alpha-LBD (GST), which results in a loss of FRET signal between the Tb-anti-GST antibody and the tracer. Briefly, to assess ER binding of the DDC compounds, the test compounds (top dose 10 μM, 4 fold serial dilution, 8 point dose response) and controls were transferred to the assay plate. The Fluormone™ ES2 Green tracer (3 nM final concentration with assay buffer) was added to the assay plate. This was followed by addition of a mixture of the ER Alpha-LBD (GST) and terbium anti-GST antibody. After a 2 h incubation period at room temperature, the plate was read on the Envision plate reader and the TR-FRET ratio of 520:495 emissions were calculated and used to determine the IC50 from a dose response curve of the compound.

ER = ER (Homo sapiens (Human), UniProt P03372); test: ER antagonism assay; assay type: cell-based; conditions: SK-BR-3 cells transfected with ERE plasmid and ER, 100 nM β-Estradiol, 24 h
ER, sequence (P03372 whole entry, looked up): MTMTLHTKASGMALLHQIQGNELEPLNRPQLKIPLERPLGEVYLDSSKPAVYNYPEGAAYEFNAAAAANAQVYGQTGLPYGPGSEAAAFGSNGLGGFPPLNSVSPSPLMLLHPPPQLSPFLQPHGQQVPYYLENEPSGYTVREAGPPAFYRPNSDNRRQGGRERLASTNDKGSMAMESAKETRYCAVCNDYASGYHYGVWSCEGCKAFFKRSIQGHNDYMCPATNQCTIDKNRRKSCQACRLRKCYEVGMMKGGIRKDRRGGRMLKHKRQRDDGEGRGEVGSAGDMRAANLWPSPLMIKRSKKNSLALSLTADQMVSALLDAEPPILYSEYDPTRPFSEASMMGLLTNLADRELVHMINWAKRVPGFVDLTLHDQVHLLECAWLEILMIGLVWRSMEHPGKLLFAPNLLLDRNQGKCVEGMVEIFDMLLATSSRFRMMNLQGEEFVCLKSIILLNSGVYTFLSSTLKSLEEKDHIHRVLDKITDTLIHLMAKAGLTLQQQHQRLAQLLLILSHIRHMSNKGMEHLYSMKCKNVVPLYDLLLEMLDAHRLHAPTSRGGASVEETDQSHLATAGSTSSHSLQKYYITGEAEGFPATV
Description: ER antagonism assay: To evaluate ER antagonist activity, SK-BR-3 cells were seeded at a density of 30000 cells/well in the assay plate. The assay plate was then incubated at 37° C., 5% CO2 for 24 h. A mixture of ERE plasmid and ER in opti-MEM media was incubated with lipofectamine 3000 in Opti-MEM media and incubated at room temperature for 15 mins. 10 μl of this transfection mix was added to each well of the assay plate and the assay plate was incubated at 37° C., 5% CO2 for 24 h. 100 nM β-Estradiol in 10 μL medium or 10 μL medium (control wells) was added to corresponding wells of assay plate and incubated at 37° C. 5% CO2 for 24 h. After the incubation period, 50 μl of Dual-glo luciferase reagent was added to the assay plate and mixed at room temperature for 20 mins on an orbital shaker, before reading out on the EnVision plate reader. 50 μL of Stop & Glo reagent was added to assay plate, mixed at room temperature for 20 minutes, and read on the Envision plate reader.

MCF7 cells = test: Cell viability assay, MCF7; assay type: cell-based; conditions: Homo sapiens
Description: (§1) Cell viability assay: LNCap, 22Rv1, MCF7, MDAMB361, T47D, and IEC6 cells are seeded at a density of 500-2000 cells/well in 96 well plates, and a ‘T0’ (timepoint 0) was included along with the assay plate. The plates are then incubated at 37° C., 5% CO2 in a cell culture incubator overnight. On the next day, the ‘T0’ plate was assayed using CellTiterGlo (Promega, Inc) according to the manufacturer's instructions. The appropriate compounds are diluted in DMSO and added to the assay plate (final DMSO concentration of 0.1-0.2%) on the next day. The assay plates are incubated for 6 days at 37° C., 5% CO2. After the incubation period, the plates are assayed using CellTiterGlo (Promega, Inc) according to the manufacturer's instructions and luminescence was read on the EnVision plate reader. Inhibition of the tested compounds was determined by the following formula: Inhibition rate (%)=(1−(RLU compound−RLU day0)/(RLU control−RLU day0))*100%. GraphPadPrism was used to analyze the data and determine GI50/IC50 values.

MDAMB361 cells = test: Cell viability assay, MDAMB361; assay type: cell-based; conditions: Homo sapiens
Description: as §1

IEC6 cells = test: Cell viability assay, IEC6; assay type: cell-based; conditions: Rattus norvegicus
Description: as §1

LNCap cells = test: Cell viability assay, LNCap; assay type: cell-based; conditions: Homo sapiens, 144 h; LNCap cells, 6 days, CellTiterGlo; read-out: LNCap (GI50)
Description: as §1

T47D cells = test: Cell viability assay, T47D; assay type: cell-based; conditions: Homo sapiens, 144 h; T47D cells, 6 days, CellTiterGlo; read-out: T47D (GI50)
Description: as §1

[2] = MCF7, 144 h, read-out: MCF7 (GI50, nM)
[3] = MDA-MB-361, 144 h, read-out: MDA-MB-361 (GI50, nM)

ER Alpha-ligand binding domain (LBD), sequence (P03372 whole entry, looked up, the tested form may be a part): as the sequence (P03372 whole entry, looked up) above

Q: How did the IC50 [1] turn out when CCc1c2c(nc3ccc(OC(=O)N4CCN(C(=O)CCCCCOc5cc(F)c([C@@H]6c7[nH]c8ccccc8c7C[C@@H](C)N6CC(C)(C)F)c(F)c5)CC4)cc13)-c1cc3c(c(=O)n1C2)COC(=O)[C@]3(O)CC [Compound 1, (S)-4,11-diethyl-4-hydroxy-3,14-dioxo-3,4,12,14-tetrahydro-1H-pyrano[3′,4′:6,7]indolizino[1,2-b]quinolin-9-yl 4-(6-(3,5-difluoro-4-((1R,3R)-2-(2-fluoro-2-methylpropyl)-3-methyl-2,3,4,9-tetrahydro-1H-pyrido[3,4-b]indol-1-yl)phenoxy)hexanoyl)piperazine-1-carboxylate] was run?
A: The IC50 was < 10 nM.

Q: And the IC50 (ER)?
A: The IC50 was 10 to 500 nM.

Q: And the GI50 (MCF7 cells; [2])?
A: Its GI50 is 10 to 500 nM.

Q: And the GI50 (MDAMB361 cells; [3])?
A: Its GI50 is 10 to 500 nM.

Q: How did the IC50 [1] turn out when CC[C@@]1(O)C(=O)OCc2c1cc1n(c2=O)Cc2cc3c(CN(C)C)c(OC(=O)N4CCN(CCCCCCOc5cc(F)c(C6c7[nH]c8ccccc8c7CC(C)N6CC(C)(C)F)c(F)c5)CC4)ccc3nc2-1 (stereo in doubt) [Compound 13, (S)-10-((Dimethylamino)methyl)-4-ethyl-4-hydroxy-3,14-dioxo-3,4,12,14-tetrahydro-1H-pyrano[3′,4′:6,7]indolizino[1,2-b]quinolin-9-yl 4-(6-(3,5-difluoro-4-((1S,3S)-2-(2-fluoro-2-methylpropyl)-3-methyl-2,3,4,9-tetrahydro-1H-pyrido[3,4-b]indol-1-yl)phenoxy)hexyl)piperazine-1-carboxylate] was run?
A: The IC50 was 10 to 500 nM.

Q: And the IC50 (ER)?
A: The IC50 was 10 to 500 nM.

Q: And the GI50 (MCF7 cells; [2])?
A: Its GI50 is 10 to 500 nM.

Q: What about the GI50 (MDAMB361 cells; [3]) of the same compound?
A: Its GI50 is 10 to 500 nM.

Q: What about the IC50 (IEC6 cells; IEC-6, 144 h, read-out: IEC-6 (IC50, nM)) of the same compound?
A: The IC50 was 501 to 1000 nM.

Q: What does the source list for CC[C@@]1(O)C(=O)OCc2c1cc1n(c2=O)Cc2cc3c(CN4CCN(C(=O)CCCCCN(C)c5ccc([C@H]6C[C@@]7(C)[C@@H](CC[C@]7(OC(C)=O)C(C)=O)[C@@H]7CCC8=CC(=O)CCC8=C76)cc5)CC4)c(O)ccc3nc2-1 [Compound 19, (8S,11R,13S,14S,17R)-17-Acetyl-11-(4-((6-(4-(((S)-4-ethyl-4,9-dihydroxy-3,14-dioxo-3,4,12,14-tetrahydro-1H-pyrano[3′,4′:6,7]indolizino[1,2-b]quinolin-10-yl)methyl)piperazin-1-yl)-6-oxohexyl)(methyl)amino)phenyl)-13-methyl-3-oxo-2,3,6,7,8,11,12,13,14,15,16,17-dodecahydro-1H-cyclopenta[a]phenanthren-17-yl Acetate]?
A: GI50 (LNCap cells): 10 to 500 nM; GI50 (T47D cells): 10 to 500 nM; GI50 (MCF7 cells; 144 h, MCF7 cells, 6 days, CellTiterGlo, read-out: MCF7 (GI50)): 10 to 500 nM; GI50 (MDAMB361 cells; 144 h, MDA-MB-361 cells, 6 days, CellTiterGlo, read-out: MDA-MB-361 (GI50)): 10 to 500 nM; IC50 (IEC6 cells; 144 h, IEC-6 cells, 6 days, CellTiterGlo, read-out: IEC-6 (IC50)): > 1000 nM

Q: What does the source list for CCc1c2c(nc3ccc(OC(=O)N4CCN(CCCCCCOc5cc(F)c([C@@H]6c7[nH]c8ccccc8c7C[C@@H](C)N6CC(C)(C)F)c(F)c5)CC4)cc13)-c1cc3c(c(=O)n1C2)COC(=O)[C@]3(O)CC [Compound 2, (S)-4,11-diethyl-4-hydroxy-3,14-dioxo-3,4,12,14-tetrahydro-1H-pyrano[3′,4′:6,7]indolizino[1,2-b]quinolin-9-yl 4-(6-(3,5-difluoro-4-((1R,3R)-2-(2-fluoro-2-methylpropyl)-3-methyl-2,3,4,9-tetrahydro-1H-pyrido[3,4-b]indol-1-yl)phenoxy)hexyl)piperazine-1-carboxylate]?
A: IC50 [1]: < 10 nM; IC50 (ER): 10 to 500 nM; GI50 (MCF7 cells; [2]): 10 to 500 nM; GI50 (MDAMB361 cells; [3]): 10 to 500 nM
